# Measured values as given in patent publication US20240025849A1 (MAX DELBRÜCK-CENTRUM FÜR MOLEKULARE MEDIZIN IN DER …, priority 2020, published 2024).
# Entries after “also recorded” stand apart in the source; their conditions may differ. Read-outs that look alike come from different tables or passages of the source.
# Columns and labels:
# [1] = tested on: primary cultured neonatal microglia; assay: Propidium iodide based proliferation and cell death assay in microglia; conditions: 2.5 μM C1, 48 hours, unstimulated
# Method: Primary cultured neonatal microglia. For preparation of cultured neonatal microglia, P0-P3 mice were used. 10 brains were extracted, meninges and cerebellum were removed and put on ice with Hank's balanced salt solution (HBSS). The dissected brains were washed 3 times before adding 400 μL trypsin (0.1 mg/L) and DNAse (5 μg/L) in phosphate buffered saline (PBS). After 2 min of incubation with this solution, the reaction was blocked by adding plain medium. After removal of the medium, 1 mg DNAse was added and the cells were mechanically dissociated, with a Pasteur pipette followed by a glass pipette. The cells were centrifuged for 10 min at 129 g at 4° C. The supernatant was discarded. The pellet was resuspended in plain medium and plated (2.5 brains/flask) in Poly-L-Lysine coated flasks. The cells were washed after 2 days with PBS and incubated for another 7 days in plain medium. […]
# (§1) Propidium iodide based proliferation and cell death assay. […] The intensity of the propidium iodide signal of the dead cells was measured using a microplate reader. Afterwards, all cells were killed with a 10 min incubation of 10% DMSO and the propidium iodide signal of all cells was measured. […] The percentage of dead cells was calculated by dividing the dead-cell-signal by the all-cell-signal. Proliferation was calculated as a relative value to the plain medium control.
# [2] = tested on: oligodendrocyte cell line OLN-93; assay: Propidium iodide based proliferation and cell death assay in OLN-93 cells; conditions: 2.5 μM C1, 48 hours, unstimulated
# Method: Cell culture of immortalized cell lines: microglia cell line BV2, and oligodendrocyte cell line OLN-93. The immortalized murine microglia cell line BV2 (Blasi et al., 1990) and the oligodendrocyte cell line OLN-93 (Richter-Landsberg and Heinrich, 1996) were incubated in T75 flasks with plain medium. The cells were split every 2 to 3 days at the dilution 1:10 before they reached confluence. To do so, the cells were washed twice with PBS, followed by up to 5 min of trypsination. The trypsination was stopped using plain medium. The cells were centrifuged at 300 g for 10 min at 4° C., the supernatant was discarded, and the cells were resuspended in new medium and seeded into a new flask.
# as §1, with “assay. To determine the relative proliferation and cell death, the cells were seeded into a […], let adhere for 24 hours and afterwards treated for additional 48 hours. The supernatant was removed, and the cells were washed carefully with 37° C.” for “assay.”
# [3] = tested on: primary cultured neonatal astrocytes; assay: AlamarBlue assay in astrocytes; format: cell-based; conditions: 2.5 μM C1, 48 hours, unstimulated
# Method: Primary cultured neonatal astrocytes. The preparation of primary cultured neonatal astrocytes followed the preparation of the primary cultured neonatal microglia, described above. After the third shake off, the remaining astrocytes were trypsinated, washed with PBS and seeded into a 96 well plate (10 000 cells/well, 200 μL medium per well).
# AlamarBlue assay. Cells were seeded according to the protocols described above, after compounds and stimuli were added, the cells were washed once with HBSS (37° C.) and 100 μl of a 1:10 AlamarBlue (Thermo Fisher Scientific) dilution in plain medium was added. The conversion of resazurin to resorufin was measured by absorbance (absorbance wavelength of 570 nm and a reference wavelength of 600 nm) after 3 hours.
# The inventors evaluated the metabolic activity, proliferation and cell death of primary cultured neonatal microglia, primary cultured neonatal astrocytes and the oligodendrocyte cell line OLN-93 under physiological conditions. All cells were treated with 2.5 μM C1 in DMSO or the corresponding DMSO concentration (125×10-5 v/v) for 48 hours without any additional stimulation followed by either an AlamarBlue assay to measure the metabolic activity, or an propidium iodide based proliferation and cell death assay. The data of the AlamarBlue assay and proliferation assay were normalised to the plain medium control. […]
# [4] = tested on: primary cultured neonatal microglia; assay: LPS induced NO release, Griess assay, laboratory scaled setup; format: cell-based, mouse; conditions: for IC50: 96 well plate, 1 h C1, then 1 μg/ml LPS 48 h, 2 nM to 20 μM, read-out: IC50, LPS induced NO release
# Method: Primary cultured neonatal microglia. For preparation of cultured neonatal microglia, P0-P3 mice were used. 10 brains were extracted, meninges and cerebellum were removed and put on ice with Hank's balanced salt solution (HBSS). The dissected brains were washed 3 times before adding 400 μL trypsin (0.1 mg/L) and DNAse (5 μg/L) in phosphate buffered saline (PBS). After 2 min of incubation with this solution, the reaction was blocked by adding plain medium. After removal of the medium, 1 mg DNAse was added and the cells were mechanically dissociated, with a Pasteur pipette followed by a glass pipette. The cells were centrifuged for 10 min at 129 g at 4° C. The supernatant was discarded. The pellet was resuspended in plain medium and plated (2.5 brains/flask) in Poly-L-Lysine coated flasks. The cells were washed after 2 days with PBS and incubated for another 7 days in plain medium. Afterwards the medium was replaced by plain medium with 33% L929 conditioned medium. After 2 days, cells were harvested by shaking them for 30 min at 150 rpm. The supernatant was centrifuged for 10 min at 129 g at 4° C. The cells were plated into a 96 well plate (100 000 cells/well, 200 μL medium per well). This procedure could be repeated 2 times with a 2 day interval.
# Griess assay. Cells were seeded according to the protocols described above, after compounds and stimuli were added, 100 μl of supernatant was transferred into a new 96 well plate and 100 μl freshly mixed Griess reagent were added. Griess reagent was composed of reagent A (100 mg Naphthylethylene in 50 ml aqua dest.) and reagent B (1 g Sulfanilamide, […] H3PO4 (85%) in 44 mL aqua dest.) mixed 1:1. The solution was carefully mixed and the absorbance was determined in a microplate reader at a wavelength of 550 nm.
# Dissolved sodium nitrite in plain medium served as a standard. Total amount of nitrite was calculated by a linear regression of the standard curve.
# The activity of the compounds listed in column 1 of Table 1 as inhibitors of NO production was compared in murine primary cultured neonatal microglia as described above.
# eNOS = biological target: T1, eNOS (Homo sapiens, UniProt P29474); assay: NOS enzyme activity assay (Eurofins), eNOS; format: biochemical; conditions: C1: 1 nM and 1 μM; 30 min reaction
# T1 construct: Eurofins (contract assay service)
# Method: To evaluate the direct influence of cl on the different isoforms of NOS, an enzyme activity assay was conducted by Eurofins. C1 was mixed with the enzyme buffer, which included co-factors and substrates and by adding the enzyme the reaction was initiated. After 30 min the reaction was stopped, and NO concentration was measured. The results are normalised to positive control performed without any additional compounds and are presented as percentage in inhibition. […] To test the compounds effect on iNOS a concentration range from 1 μM up to 5 μM were applied (1, 10, 100 μM, 1, 10, 100 nM, 1, and 5 μM), and for testing eNOS and nNOS 1 nM and 1 μM were applied.
# nNOS = assay: NOS enzyme activity assay (Eurofins), nNOS; format: biochemical; conditions: C1: 1 nM and 1 μM; 30 min reaction
# Method: In mammalians NO is produced by the three isoforms of NOS: iNOS, eNOS, and nNOS. To evaluate the direct influence of cl on the different isoforms of NOS, an enzyme activity assay was conducted by Eurofins. C1 was mixed with the enzyme buffer, which included co-factors and substrates and by adding the enzyme the reaction was initiated. After 30 min the reaction was stopped, and NO concentration was measured. The results are normalised to positive control performed without any additional compounds and are presented as percentage in inhibition. […] To test the compounds effect on iNOS a concentration range from […] 5 μM were applied ([…], 1, 10, 100 nM, 1, and 5 μM), and for testing eNOS and nNOS 1 nM and 1 μM were applied.
compound,measurement,setting,value
COc1ccc(NC(=O)C(NC(=O)C2CCCN2C(=O)OCc2ccccc2)c2ccc(OC)cc2)cc1 (centres unmarked) [C1],percentage of dead cells in microglia,[1],8.49%
same,OLN-93 cell death rate,[2],no significant effect
same,proliferation of OLN-93 cells,[2],did not show an effect; also recorded: Neither C1 nor DMSO changed the proliferation
same,metabolic activity of astrocytes,[3],no influence; also recorded: not affected
same,IC50,[4],250 nM
same,NO release in unstimulated microglia,"[4]; C1 alone 0.025, 0.25, 2.5 μM, 48 hours, no LPS",did not show any significant difference; also recorded: did neither change the NO release
same,IC50,"[4]; Mus musculus, Microglia",252 nM
same,NO concentration in supernatant vs plain medium / DMSO,"[4]; post-treatment with 2.5 μM C1 after 24 hours LPS, from 8 hours (plain medium), 12 hours (DMSO)",significantly reduced; also recorded: significant reduction
same,calculated plateau of NO concentration in supernatant,"[4]; post-treatment: 24 hours LPS, medium change, then 2.5 μM C1 up to 60 hours",7 µM
same,enzymatic activity of eNOS,eNOS,does not interfere
same,enzymatic activity of nNOS,nNOS,does not interfere
